The test system of experiment [1] is MV-4-11 cells. The experiment is described as follows: Cell viability assay (CellTiter-Glo), MV-4-11. The experiment is classed as cell-based. To be noted: Homo sapiens, MV4-11, 24 hours incubation, 1% FBS, read-out: Average pIC50 by molecule MV-4-11 (converted). The text has this:
(§1) The effect of various compounds of the invention on the viability of OPM-2, MV-4-11 and ARH-77 cell lines was investigated, using the CTG protocol described below.
(§2) OPM-2 and MV-4-11 cell lines are derived from multiple myeloma and acute myeloid leukaemia, respectively. Both cell lines are described in the literature as MCL-1 dependent lines, as opposed to lymphoblast-like ARH-77 cell line, which is described as independent of MCL-1 (Tron A E et al. Nat Commun. 2018; 9: 5341; Caenepeel S et al. Cancer Discov. 2018 December; 8(12):1582-1597).
(§3) Cells (OPM-2, MV-4-11 or ARH-77) were seeded on […] in a growth medium with FBS reduced to 1%. Next, compound stocks were pre-diluted in DMSO and added directly to the cells growth medium (final DMSO concentration: 0.5%). Compound concentrations used in this assay: 1/3 dilutions starting at 30 uM (9 to 12 points).
(§4) After 24 hours of incubation, cell viability was evaluated using CellTiter-Glo Luminescent Cell Viability Assay (Promega, cat #G7572). Luminescence signal was measured using a CLARIOstar Plus Multi-Mode Microplate Reader (574-590 nm).
(§5) Results were normalized to DMSO control.
(Cellular ATP, detected with luciferase, serves as a proxy for viable cell number.)

Experiment [2] relates to ARH-77 cells. Description: Cell viability assay (CellTiter-Glo), ARH-77. In kind it is cell-based. To be noted: Homo sapiens, ARH-77, 24 hours incubation, 1% FBS, read-out: Average pIC50 by molecule ARH-77 (converted).
Excerpt: as §1, §2, §3, §4, §5

For experiment [3], the target named is [MCL-1]-[compound of formula (I)]-[CRBN/DDB1] complex (Homo sapiens, UniProt Q07820+Q96SW2). The experiment is described as follows: AlphaLISA dose response ternary complex formation assay. To be noted: read-out: AlphaLISA dose response Average pEC50 by molecule (converted). In kind it is binding. As for the experimental part: The effect of the bifunctional compounds of the invention on the formation of a ternary complex composed of [MCL-1]-[compound of formula (I)]-[CRBN/DDB1] was investigated with two methods: AlphaLISA dose response assay or HTRF ternary complex assay.
Two types of protein solution were prepared: • 40 nM biotinylated hMCL-1, 40 μg/ml AlphaScreen Streptavidin-coated Donor Beads in PBS buffer with 0.1% Tween-20 and 1 mM DTT, • 200 nM 6×His-CRBN/Strep-DDB1, 40 μg/ml AlphaLISA Anti-6×His Acceptor beads in PBS buffer with 0.1% Tween-20 and 1 mM DTT.
The prepared solutions were incubated at room temperature for 45 min and then the solution containing the donor beads was mixed with the solution containing the acceptor beads.
The tested compounds were dispensed onto a white 384-well AlphaPlate 384 SW. DMSO was backfilled to all wells, resulting in a final DMSO content of 2%. Wells containing only DMSO served as background. Next, 10 μl of solution with donor and acceptor beads was added to the wells.
The plate was sealed with transparent film and shaken using a VibroTurbulator for 60 see at room temperature, level 3. The plate was then spun down shortly (10 s, 1000 rcf, room temperature) and incubated at 25° C. for 30 min.
The read-out was performed with PerkinElmer Enspire Multimode Plate Reader (method for AlphaLISA 384-well low volume, Filterset: λexc=680 nm, λem=615 nm).
The results were analyzed as follows: • 1) an average of luminescence for background signal was calculated and used as a negative control; • 2) average of the maximum measured luminescence for 233 was calculated and used as an internal positive control; • 3) raw luminescence values were normalized against positive and negative controls; • 4) concentration points above the hook point were excluded; • 5) EC50 and pEC50 values were determined.
In general terms: In Alpha technology, singlet oxygen from a donor bead excites a nearby acceptor bead.

Structures are written as SMILES.

[MCL-1]-[compound of formula (I)]-[CRBN/DDB1] complex, sequence (Q07820 whole entry): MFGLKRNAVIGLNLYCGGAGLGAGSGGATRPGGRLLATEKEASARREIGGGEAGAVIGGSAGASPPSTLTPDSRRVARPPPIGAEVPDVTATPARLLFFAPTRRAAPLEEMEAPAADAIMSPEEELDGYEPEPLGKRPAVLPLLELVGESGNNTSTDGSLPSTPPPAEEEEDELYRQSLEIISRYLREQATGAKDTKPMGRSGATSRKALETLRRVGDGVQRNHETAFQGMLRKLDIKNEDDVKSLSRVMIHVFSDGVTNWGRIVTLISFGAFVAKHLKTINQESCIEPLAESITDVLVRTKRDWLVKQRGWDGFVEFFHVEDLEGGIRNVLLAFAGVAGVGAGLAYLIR
[MCL-1]-[compound of formula (I)]-[CRBN/DDB1] complex, sequence (Q96SW2 whole entry): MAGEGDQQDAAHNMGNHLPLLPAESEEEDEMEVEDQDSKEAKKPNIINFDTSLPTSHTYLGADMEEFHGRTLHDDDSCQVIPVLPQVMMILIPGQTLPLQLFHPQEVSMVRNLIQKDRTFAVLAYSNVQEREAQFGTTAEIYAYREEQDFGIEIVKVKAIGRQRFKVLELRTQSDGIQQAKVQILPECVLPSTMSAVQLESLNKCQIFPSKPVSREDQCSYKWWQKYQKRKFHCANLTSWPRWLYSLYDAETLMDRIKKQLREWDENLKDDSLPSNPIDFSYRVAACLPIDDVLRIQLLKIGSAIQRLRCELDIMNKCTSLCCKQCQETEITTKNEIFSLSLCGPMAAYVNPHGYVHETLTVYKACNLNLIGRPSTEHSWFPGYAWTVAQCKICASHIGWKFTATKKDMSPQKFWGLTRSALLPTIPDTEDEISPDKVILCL
[MCL-1]-[compound of formula (I)]-[CRBN/DDB1] complex, sequence (Q16531 whole entry partner): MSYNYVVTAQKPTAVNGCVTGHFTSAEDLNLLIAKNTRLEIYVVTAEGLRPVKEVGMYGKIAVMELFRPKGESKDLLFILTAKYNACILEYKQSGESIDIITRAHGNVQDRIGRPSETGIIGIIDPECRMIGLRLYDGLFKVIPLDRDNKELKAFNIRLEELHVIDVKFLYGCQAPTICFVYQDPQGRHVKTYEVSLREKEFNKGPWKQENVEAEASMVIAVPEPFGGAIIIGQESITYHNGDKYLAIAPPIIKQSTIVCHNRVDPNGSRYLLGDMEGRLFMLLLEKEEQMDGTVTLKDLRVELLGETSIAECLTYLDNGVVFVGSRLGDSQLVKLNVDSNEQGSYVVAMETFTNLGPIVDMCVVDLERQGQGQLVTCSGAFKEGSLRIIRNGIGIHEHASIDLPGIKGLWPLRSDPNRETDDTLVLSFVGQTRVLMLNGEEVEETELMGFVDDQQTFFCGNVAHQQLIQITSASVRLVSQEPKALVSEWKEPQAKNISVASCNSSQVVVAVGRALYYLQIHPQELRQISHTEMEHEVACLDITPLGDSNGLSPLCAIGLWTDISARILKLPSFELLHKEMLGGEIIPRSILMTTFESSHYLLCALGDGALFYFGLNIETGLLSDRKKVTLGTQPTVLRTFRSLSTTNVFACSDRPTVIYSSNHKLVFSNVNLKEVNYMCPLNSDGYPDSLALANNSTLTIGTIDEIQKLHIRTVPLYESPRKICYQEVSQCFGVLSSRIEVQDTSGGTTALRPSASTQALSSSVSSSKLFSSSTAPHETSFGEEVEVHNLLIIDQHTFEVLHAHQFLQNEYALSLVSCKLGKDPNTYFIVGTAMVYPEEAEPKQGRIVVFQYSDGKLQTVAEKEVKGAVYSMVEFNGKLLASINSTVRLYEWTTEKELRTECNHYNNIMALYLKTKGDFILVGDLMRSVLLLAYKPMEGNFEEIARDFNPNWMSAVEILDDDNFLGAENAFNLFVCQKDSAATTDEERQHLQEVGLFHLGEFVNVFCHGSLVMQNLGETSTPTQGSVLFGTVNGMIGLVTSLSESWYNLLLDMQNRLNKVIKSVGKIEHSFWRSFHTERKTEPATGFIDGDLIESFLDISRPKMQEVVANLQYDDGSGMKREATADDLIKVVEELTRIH

Consider `Cc1nn(C)c(C)c1-c1c(Cl)ccc2c(CCCOc3cccc4cc(F)ccc34)c(C(=O)O)n(CCN3CCN(C(=O)[C@H](C)Oc4cccc5c4C(=O)N([C@@H]4CCC(=O)NC4=O)C5=O)CC3)c12` (single isomer, unassigned) [Compound 320], for which the IC50 was no more than 100 nM in experiment [1] and greater than 10000 nM in experiment [2].

`Cc1cc(OCCCc2c(C(=O)O)n(CCN3CCN(C(=O)CCOCCOCCOCCOCCOCCOCCNc4cccc5c4C(=O)N(C4CCC(=O)NC4=O)C5=O)CC3)c3c(-c4c(C)nn(C)c4C)c(Cl)ccc23)cc(C)c1Cl` (stereo not shown) [Compound 203, 6-chloro-3-[3-(4-chloro-3,5-dimethylphenoxy)propyl]-1-{2-(4-(1-{(2-(2,6-dioxopiperidin-3-yl)-1,3-dioxo-2,3-dihydro-1H-isoindol-4-yl]amino}-3,6,9,12,15,18-hexaoxahenicosanoyl)piperazin-1-yl]ethyl}-7-(1,3,5-trimethyl-1H-pyrazol-4-yl)-1H-indole-2-carboxylic acid]: the IC50 in experiment [1] is no more than 1000 nM. The EC50 in experiment [3] is less than 100 nM.

On to `Cc1nc2cccc(NCC(=O)N3CCN(CCn4c(C(=O)O)c(CCCOc5cccc6cc(F)ccc56)c5ccc(Cl)c(-c6c(C)nn(C)c6C)c54)CC3)c2cc1C1CCC(=O)NC1=O` (stereo not shown) [Compound 287, 6-Chloro-1-{2-[4-(2-{[3-(2,6-dioxopiperidin-3-yl)-2-methylquinolin-5-yl]amino}acetyl)piperazin-1-yl]ethyl}-3-{3-[(6-fluoronaphthalen-1-yl)oxy]propyl}-7-(1,3,5-trimethyl-1H-pyrazol-4-yl)-1H-indole-2-carboxylic acid], for which the IC50 is no more than 1000 nM in experiment [1] and greater than 3160 nM in experiment [2].

As for `Cc1nn(C)c(C)c1-c1c(Cl)ccc2c(CCCOc3cccc4c3C3CCC4C3)c(C(=O)O)n(CCN3CCN(C(=O)COc4cccc5c4CN(C4CCC(=O)NC4=O)C5=O)CC3)c12` (stereo not shown) [Compound 352, 6-Chloro-1-(2-(4-(2-((2-(2,6-dioxopiperidin-3-yl)-1-oxoisoindolin-4-yl)oxy)acetyl)piperazin-1-yl)ethyl)-3-(3-((1,2,3,4-tetrahydro-1,4-methanonaphthalen-5-yl)oxy)propyl)-7-(1,3,5-trimethyl-1H-pyrazol-4-yl)-1H-indole-2-carboxylic acid], the EC50 in experiment [3] was less than 1000 nM.

With `Cc1nn(C)c(C)c1-c1c(Cl)ccc2c(CCCOc3cccc4cc(F)ccc34)c(C(=O)O)n(CCN3CCN(C(=O)COc4cccc5c4CN([C@@H]4CCC(=O)NC4=O)C5=O)CC3)c12` [Compound 297, (R)-6-Chloro-1-(2-(4-(2-((2-(2,6-dioxopiperidin-3-yl)-1-oxoisoindolin-4-yl)oxy)acetyl)piperazin-1-yl)ethyl)-3-(3-((6-fluoronaphthalen-1-yl)oxy)propyl)-7-(1,3,5-trimethyl-1H-pyrazol-4-yl)-1H-indole-2-carboxylic acid], the values for the IC50 in experiment [1] and in experiment [2] were no more than 100 nM and greater than 10000 nM, respectively.

With `Cc1c2c(nn1C)CSCc1cc(n(C)n1)CSc1cc(c3ccccc3c1)OCCCc1c(C(=O)NS(=O)(=O)CCNC(=O)CCOCCOCCNc3cccc4c3C(=O)N(C3CCC(=O)NC3=O)C4=O)n(C)c3c-2c(Cl)ccc13` (stereo not shown) [Compound 261, N-{2-[({17-chloro-5,13,14,22-tetramethyl-28-oxa-2,9-dithia-5,6,12,13,22-pentaazaheptacyclo[27.7.1.1^4,^7.0^11,^15.0,^16,^21.0^20,^24.0^30,^35]octatriaconta-1(37),4(38),6,11,14,16,18,20,23,29,31,33,35-tridecaen-23-yl}formamido)sulfonyl]ethyl}-3-[2-(2-{[2-(2,6-dioxopiperidin-3-yl)-1,3-dioxo-2,3-dihydro-1H-isoindol-4-yl]amino}ethoxy)ethoxy]propanamide], the EC50 in experiment [3] is less than 1000 nM.

Values taken from patent publication US20240294499A1, “TARGETED PROTEIN DEGRADATION USING BIFUNCTIONAL COMPOUNDS THAT BIND UBIQUITIN LIGASE AND TARGET MCL-1 PROTEIN” (Captor Therapeutics S.A., priority 2021, published 2024).
